Data taken from patent US4117003A, “Substituted aromatic naphthalene sulfonamides” (American Cyanamid Company, priority 1977, dated 1978).
Counter-ions that a name gives are not always drawn. Like-named read-outs stand apart in the source and are kept apart here.

Columns and labels:
activated human C1 = target: T1, activated human C1 (Homo sapiens, UniProt P09871); assay: Test, Code 026 (C1 inhibitor); type: biochemical; settings: activity in wells of a serial two-fold dilution assay; higher well number indicates higher activity
T1 sequence (P09871 438-688 limits assumed): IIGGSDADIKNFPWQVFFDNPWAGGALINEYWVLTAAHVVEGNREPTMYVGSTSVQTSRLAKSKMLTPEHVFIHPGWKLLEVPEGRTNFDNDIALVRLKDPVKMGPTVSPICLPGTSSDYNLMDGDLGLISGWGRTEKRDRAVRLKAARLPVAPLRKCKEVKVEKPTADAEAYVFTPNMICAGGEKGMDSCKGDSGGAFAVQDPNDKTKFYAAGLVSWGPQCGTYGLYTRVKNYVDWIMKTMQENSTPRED
T1 sequence (P09871 16-437 limits assumed): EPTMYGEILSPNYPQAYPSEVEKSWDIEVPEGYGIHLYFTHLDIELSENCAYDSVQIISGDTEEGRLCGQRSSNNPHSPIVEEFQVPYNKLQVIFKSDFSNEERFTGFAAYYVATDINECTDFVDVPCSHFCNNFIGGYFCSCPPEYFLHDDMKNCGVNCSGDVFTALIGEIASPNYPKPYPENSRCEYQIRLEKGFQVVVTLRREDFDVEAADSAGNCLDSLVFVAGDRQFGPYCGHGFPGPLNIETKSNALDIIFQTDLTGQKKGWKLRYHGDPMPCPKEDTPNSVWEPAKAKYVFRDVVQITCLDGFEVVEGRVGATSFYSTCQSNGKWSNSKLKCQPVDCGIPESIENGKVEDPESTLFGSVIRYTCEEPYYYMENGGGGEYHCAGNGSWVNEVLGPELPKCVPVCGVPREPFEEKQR
From the text: (§1) This test measures the ability of activated human C1 to destroy fluid phase human C2 in the presence of C4 and appropriate dilutions of the test compound. An active inhibitor protects C2 from C1 and C4; (ii) Test, Code 035 (C3-C9 inhibitor). This test determines the ability of the late components of human complement (C3-C9) to lyse EAC 142 in the presence of appropriate dilutions of the test compound. An active inhibitor protects EAC 142 from lysis by human C3-C9; (iii) Test, Code 036 (C-Shunt inhibitor). In this test human erythrocytes rendered fragile are lysed in autologous serum via the shunt pathway activated by cobra venom factor in the presence of appropriate dilutions of the test compound. Inhibition of the shunt pathway results in failure of lysis; (iv) Forssman Vasculitis Test - Here, the well known complement dependent lesion, Forssman vasculitis, is produced in guinea pigs by intradermal injection of rabbit anti-Forssman antiserum. […]

[1] = system: late components of human complement (C3-C9); assay: Test, Code 035 (C3-C9 inhibitor); type: biochemical; settings: activity in wells of a serial two-fold dilution assay; higher well number indicates higher activity
From the text: as §1

[2] = system: shunt pathway activated by cobra venom factor; assay: Test, Code 036 (C-Shunt inhibitor); type: cell-based, human; settings: activity in wells of a serial two-fold dilution assay; higher well number indicates higher activity
From the text: as §1

[3] = system: whole complement in serum; assay: Complement Level Reduction Test (in vivo, capillary tube assay of serum); settings: Cavia porcellus, ip, guinea pig, 200 mg/kg i.p., read-out: In Vivo Activity (Guinea Pig) % Inhibition Intraperitoneal

Structure (SMILES) | Cl 0.26* Wells (activated human C1) | C-Late 0.35* Wells [1] | Shunt Inhibition 0.36* Wells [2] | inhibition at 200 mg/kg ([3]; 0.5 h, 30 minutes) | inhibition at 200 mg/kg ([3]; 1 h, 60 minutes) | inhibition at 200 mg/kg ([3]; 2 h, 120 minutes)
O=S(=O)(O)c1ccc(NS(=O)(=O)c2ccc3c(S(=O)(=O)Nc4ccc(S(=O)(=O)O)cc4)cc(S(=O)(=O)Nc4ccc(S(=O)(=O)O)cc4)cc3c2)cc1 [4,4',4"-[1,3,6-Naphthalenetris(sulfonylimino)]trisbenzenesulfonic acid trisodium salt] | +4 Wells | N | N |  |  | 
O=S(=O)(O)c1cc(NS(=O)(=O)c2ccc3c(S(=O)(=O)Nc4cc(S(=O)(=O)O)cc(S(=O)(=O)O)c4)cc(S(=O)(=O)Nc4cc(S(=O)(=O)O)cc(S(=O)(=O)O)c4)cc3c2)cc(S(=O)(=O)O)c1 [5,5',5"-[1,3,6-Naphthalenetris(sulfonylimino)]tris-1,3-benzenedisulfonic acid hexasodium salt] |  | N |  | -85% | -86% | -86%
